The results in this text go back to patent US20220135540A1, “POLYMORPHS OF AN FXR AGONIST” (Eli Lilly and Company, priority 2020, published 2022).

Series [1] is described as follows: Tissue distribution (liver versus plasma and other tissues). Format: in vivo. As to conditions: liver relative to plasma, heart and skin, liver vs plasma, kidney, lungs, read-out: concentration in the liver relative to plasma, kidney, lungs, heart, and skin. An excerpt: Compound I is preferentially distributed to the liver, which, without being bound by theory, would allow the compound to reach its FXR target in the liver with fewer off-target adverse effects. For example, Compound I has an approximately 20-fold higher concentration in the liver than in the plasma, kidney, lungs, heart, and skin. This trait would likely be particularly beneficial for vulnerable populations, such as children, the elderly, and people with comorbidities.

Series [2] can be described thus: Moisture sorption analysis (MSA). Format: physicochemical. To be noted: for hygroscopicity (overall, from moisture sorption data): 5% to 95% RH; for weight change (loss) between ~95% RH and ~5% RH: desorption step ~95% to ~5% RH; for weight loss upon equilibration at ~5% RH: moisture sorption; for weight change (gain) between ~5% and ~95% RH: sorption step ~5% to ~95% RH. How it is done: MSA analyses were performed using a VTI SGA-100 Vapor Sorption Analyzer. Sorption and desorption data were collected over a range of 5% to 95% relative humidity (RH) at 10% RH intervals under a nitrogen purge. Samples were not dried prior to analysis. Equilibrium criteria used for analysis were less than 0.0100% weight change in 5 minutes, with a maximum equilibration time of 3 hours if the weight criterion was not met. Data were not corrected for the initial moisture content of the samples. NaCl and PVP were used as calibration standards.

A short description of series [3]: Solid form stability when stressed at high relative humidity. It counts as physicochemical. To be noted: ~94% RH for 10 days. How it is done: Polymorphic Form I of Compound I was obtained by slurrying of Compound I in ethyl acetate or methanol at room temperature, or in a mixture IPA:water 1:1 at ˜58° C. Additionally, Form I was obtained by slow cooling of a solution of Compound I in acetonitrile.

A short description of series [4]: Slurry interconversion of polymorphic forms. It counts as physicochemical. As to the method:
Slurry interconversion experiments were performed at temperatures ranging from room temperature to ˜81° C. Solvent systems used for the study were nitromethane, acetonitrile, and a THF/heptane 1:2 (v/v) mixture.

As for `Cn1cc(C(=O)O)c2ccc(N3CCC(OCc4c(-c5c(Cl)cccc5Cl)noc4C4CC4)CC3)cc21` [Compound I, 6-(4-((5-cyclopropyl-3-(2,6-dichlorophenyl)isoxazol-4-yl)methoxy)piperidin-1-yl)-1-methyl-1H-indole-3-carboxylic acid], the Kp in series [1] was about 20.
For `Cn1cc(C(=O)O)c2ccc(N3CCC(OCc4c(-c5c(Cl)cccc5Cl)noc4C4CC4)CC3)cc21` [Form I, 6-(4-((5-cyclopropyl-3-(2,6-dichlorophenyl)isoxazol-4-yl)methoxy)piperidin-1-yl)-1-methyl-1H-indole-3-carboxylic acid], in series [2], the “hygroscopicity (overall, from moisture sorption data)” value was “low hygroscopicity”; the “weight change (loss) between ~95% RH and ~5% RH” value is on record as about 0.4 wt %; the “weight loss upon equilibration at ~5% RH” value was about 0.1 wt %; the “weight change (gain) between ~5% and ~95% RH” value is recorded as about 0.4 wt %. Besides, the “stability as a solid form under humidity stress” value in series [3] is “remained stable”.
Take `Cn1cc(C(=O)O)c2ccc(N3CCC(OCc4c(-c5c(Cl)cccc5Cl)noc4C4CC4)CC3)cc21` [Form II, 6-(4-((5-cyclopropyl-3-(2,6-dichlorophenyl)isoxazol-4-yl)methoxy)piperidin-1-yl)-1-methyl-1H-indole-3-carboxylic acid]: in series [2], the “hygroscopicity (overall, from moisture sorption data)” value is given as “low hygroscopicity”; the “weight change (loss) between ~95% RH and ~5% RH” value is listed as “negligible weight change”; the “weight loss upon equilibration at ~5% RH” value is about 0.6 wt %; the “weight change (gain) between ~5% and ~95% RH” value is “negligible weight change”. In addition, the “relative stability among polymorphic forms” value in series [4] (ambient temperature and elevated temperature up to ~81° C.) was “most stable form”.
As for `Cn1cc(C(=O)O)c2ccc(N3CCC(OCc4c(-c5c(Cl)cccc5Cl)noc4C4CC4)CC3)cc21` [I, II, III, IV, V, VI, VII], the “XRPD Result of slurry interconversion” value in series [4] (ACN, RT, 1 day, ~5 mg each) is given as “Form II”; in series [4] (Nitromethane, RT, 3 days, ~5 mg each), “Form II”; in series [4] (Nitromethane, ~78-81° C., 3 days, ~5 mg each), “Form II”.
Turning to `Cn1cc(C(=O)O)c2ccc(N3CCC(OCc4c(-c5c(Cl)cccc5Cl)noc4C4CC4)CC3)cc21` [I, II, III, V], the “XRPD Result of slurry interconversion” value in series [4] (ACN, ~66-69° C., 1 day, ~5 mg each) is listed as “Form II”.
For the compound `Cn1cc(C(=O)O)c2ccc(N3CCC(OCc4c(-c5c(Cl)cccc5Cl)noc4C4CC4)CC3)cc21` [I, II, VI], the “XRPD Result of slurry interconversion” value is listed as “Form II” in series [4] (THF/heptane 1:2, ~61° C., 1 day, ~15 mg each) and “Form II” in series [4] (THF:heptane 1:2, RT, 1 day, ~15 mg each).
